According to patent US11654199B2 (BOLT BIOTHERAPEUTICS, INC., priority 2019, dated 2023):
pEC50: −log10 of the molar value.

Tests used:
[1] = target: T1, human TLR8 (Homo sapiens, UniProt Q9NR97); assay: HEK293 NFKB reporter assay, human TLR8; assay type: cell-based; conditions: HEK293 NFKB reporter cells expressing human TLR8; read-out: HEK293 hTLR8 EC50
T1 construct: host or cells: HEK293 reporter cells
T1 sequence (Q9NR97 27-1041): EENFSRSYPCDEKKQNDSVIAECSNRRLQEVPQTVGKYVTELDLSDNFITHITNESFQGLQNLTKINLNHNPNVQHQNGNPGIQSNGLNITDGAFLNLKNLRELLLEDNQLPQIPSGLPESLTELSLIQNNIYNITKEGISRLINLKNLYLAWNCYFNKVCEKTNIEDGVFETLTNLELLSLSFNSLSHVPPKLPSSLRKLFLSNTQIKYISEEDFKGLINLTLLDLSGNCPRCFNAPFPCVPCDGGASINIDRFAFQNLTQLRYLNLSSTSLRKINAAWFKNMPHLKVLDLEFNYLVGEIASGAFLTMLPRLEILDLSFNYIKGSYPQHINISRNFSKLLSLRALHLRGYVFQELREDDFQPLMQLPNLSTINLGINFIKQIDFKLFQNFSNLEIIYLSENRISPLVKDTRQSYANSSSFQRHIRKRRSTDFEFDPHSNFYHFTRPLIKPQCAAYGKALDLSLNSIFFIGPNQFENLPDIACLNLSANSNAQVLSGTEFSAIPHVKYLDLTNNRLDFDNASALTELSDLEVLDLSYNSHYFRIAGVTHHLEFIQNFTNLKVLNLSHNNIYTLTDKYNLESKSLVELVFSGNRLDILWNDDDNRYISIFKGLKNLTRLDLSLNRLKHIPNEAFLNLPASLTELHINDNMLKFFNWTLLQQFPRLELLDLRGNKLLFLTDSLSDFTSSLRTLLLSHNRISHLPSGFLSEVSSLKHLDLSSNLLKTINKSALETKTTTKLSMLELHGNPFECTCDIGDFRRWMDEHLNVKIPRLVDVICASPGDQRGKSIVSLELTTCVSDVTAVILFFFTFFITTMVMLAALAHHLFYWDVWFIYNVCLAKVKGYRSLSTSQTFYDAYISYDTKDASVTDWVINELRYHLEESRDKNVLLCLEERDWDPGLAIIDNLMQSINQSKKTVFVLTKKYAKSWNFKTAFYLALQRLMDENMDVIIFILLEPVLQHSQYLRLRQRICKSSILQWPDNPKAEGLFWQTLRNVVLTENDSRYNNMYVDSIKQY
Method: (§1) Each compound was synthesized, purified, and characterized by mass spectrometry and shown to have the mass indicated. Additional experimental procedures are found in the Examples. Activity against HEK293 NFKB reporter cells expressing human TLR7 or human TLR8 was measured according to Example 202.
(§2) HEK293 reporter cells expressing human TLR7 or human TLR8 were purchased from Invivogen and vendor protocols were followed for cellular propagation and experimentation. Briefly, cells were grown to 80-85% confluence at 5% CO2 in DMEM supplemented with 10% FBS, Zeocin, and Blasticidin. Cells were then seeded in 96-well flat plates at 4×10^4 cells/well with substrate containing HEK detection medium and immunostimulatory molecules. Activity was measured using a plate reader at 620-655 nm wavelength.

[2] = target: T2, human TLR7 (Homo sapiens, UniProt Q9NYK1); assay: HEK293 NFKB reporter assay, human TLR7; assay type: cell-based; conditions: HEK293 NFKB reporter cells expressing human TLR7; read-out: HEK293 hTLR7 EC50
T2 construct: host or cells: HEK293 reporter cells
T2 sequence (Q9NYK1 27-1049): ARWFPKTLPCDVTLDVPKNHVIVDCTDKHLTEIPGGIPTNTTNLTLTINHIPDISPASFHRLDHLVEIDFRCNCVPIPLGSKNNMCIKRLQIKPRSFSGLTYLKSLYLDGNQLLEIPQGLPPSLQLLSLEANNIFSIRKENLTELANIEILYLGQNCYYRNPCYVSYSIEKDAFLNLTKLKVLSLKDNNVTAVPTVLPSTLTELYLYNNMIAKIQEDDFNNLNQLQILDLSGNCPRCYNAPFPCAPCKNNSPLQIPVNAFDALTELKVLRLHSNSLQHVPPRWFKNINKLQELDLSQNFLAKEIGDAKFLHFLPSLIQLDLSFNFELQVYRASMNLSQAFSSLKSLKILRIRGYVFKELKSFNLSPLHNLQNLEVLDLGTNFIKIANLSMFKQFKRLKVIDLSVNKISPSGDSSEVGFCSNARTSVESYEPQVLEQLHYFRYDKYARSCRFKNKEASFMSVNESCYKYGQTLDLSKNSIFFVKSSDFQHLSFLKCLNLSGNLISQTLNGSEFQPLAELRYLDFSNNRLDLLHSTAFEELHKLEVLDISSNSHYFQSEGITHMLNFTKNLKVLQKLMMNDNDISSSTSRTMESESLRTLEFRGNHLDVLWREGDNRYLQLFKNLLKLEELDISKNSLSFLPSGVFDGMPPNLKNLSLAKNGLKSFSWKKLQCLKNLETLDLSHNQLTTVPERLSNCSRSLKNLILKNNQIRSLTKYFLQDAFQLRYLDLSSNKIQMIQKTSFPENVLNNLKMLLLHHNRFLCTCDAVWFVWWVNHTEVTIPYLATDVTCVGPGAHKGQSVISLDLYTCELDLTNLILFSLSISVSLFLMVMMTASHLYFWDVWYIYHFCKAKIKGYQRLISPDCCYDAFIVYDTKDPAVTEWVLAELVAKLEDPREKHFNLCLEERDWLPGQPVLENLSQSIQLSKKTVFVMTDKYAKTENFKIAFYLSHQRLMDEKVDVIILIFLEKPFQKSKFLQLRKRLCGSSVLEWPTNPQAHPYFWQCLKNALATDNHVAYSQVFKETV
Method: as §1, §2

Row | pEC50 [1] | pEC50 [2] | SMILES
1 | 5.39 | 5.54 | CCCN(OCC)C(=O)C1=Cc2sc(CCC3(O)CNC3)cc2N=C(N)C1 [TAZ-200]
2 | 5.40 | < 5.05 | CCCN(NCC)C(=O)C1=Cc2sccc2N=C(N)C1 [TAZ-85]
3 | 5.78 | 5.70 | CCCN(OCCNC(=O)CC(C)(C)C)C(=O)C1=Cc2sc(CCCCCNC(=O)OC(C)(C)C)cc2N=C(N)C1 [TAZ-150]
4 | 6.52 | 5.39 | CCON(CCC(F)(F)F)C(=O)C1=Cc2sccc2N=C(N)C1 [TAZ-74]
5 | 5.50 | 5.35 | CCCN(CCC)C(=O)C1=Cc2sc(CNC(=O)CNC(=O)OC(C)(C)C)cc2N=C(N)C1 [TAZ-93]
6 | – | 5.69 | CCCN(CCCNC(=O)OC1CCC1)C(=O)C1=Cc2sc(CC3CNC3)cc2N=C(N)C1 [TAZ-181]
7 | 5.75 | < 5.05 | CCCN(Cc1ccc(CNC(C)=O)cc1)C(=O)C1=Cc2sccc2N=C(N)C1 [TAZ-45]
8 | < 5.05 | < 5.05 | CCCN(CCC)C(=O)C1=Cc2sc(C(=O)NCCCNC(=O)OC(C)(C)C)cc2N=C(N)C1 [TAZ-31]
9 | 6.82 | 5.57 | CCCN(Cc1ccc(CN)cc1C(F)(F)F)C(=O)C1=Cc2sccc2N=C(N)C1 [TAZ-52, 5-amino-N-[[4-(aminomethyl)-2-(trifluoromethyl)phenyl]methyl]-N-propyl-6H-thieno[3,2-b]azepine-7-carboxamide]
10 | 6.20 | 6.33 | CCCN(OCC)C(=O)C1=Cc2sc(CCC3CN(C(=O)OC(C)(C)C)C3)cc2N=C(N)C1 [TAZ-194]
11 | 6.49 | 5.53 | CCCN(Cc1ccc(CO)cc1)C(=O)C1=Cc2sccc2N=C(N)C1 [TAZ-96]
12 | 5.08 | 5.09 | CCON(C(=O)C1=Cc2sc(CC3CN(C(=O)OC(C)(C)C)C3)cc2N=C(N)C1)C(C)CC (centres unmarked) [TAZ-254]
13 | 5.35 | 6.36 | CCCN(OCC)C(=O)C1=Cc2sc(CN3CCCN(C(=O)OC(C)(C)C)CC3)cc2N=C(N)C1 [TAZ-226]
14 | < 5.05 | < 5.05 | CCCN(Cc1ccc(CCNC(=O)OC(C)(C)C)cc1)C(=O)C1=Cc2sccc2N=C(N)C1 [TAZ-59]
15 | 6.29 | 5.38 | CCCN(Cc1ccc(CN)nc1)C(=O)C1=Cc2sccc2N=C(N)C1 [TAZ-63]
16 | 5.53 | 5.81 | CCCN(OCC)C(=O)C1=Cc2sc(CN3CC(CNC(=O)OC(C)(C)C)C3)cc2N=C(N)C1 [TAZ-210]
17 | 5.49 | 5.48 | CCCN(C(=O)C1=Cc2sc(CCCCCN)cc2N=C(N)C1)C1CC1 [TAZ-122]
18 | 5.92 | 5.59 | CCCN(OCC)C(=O)C1=Cc2sc(CN3CCCNCC3)cc2N=C(N)C1 [TAZ-225]
19 | < 5.05 | < 5.05 | CCCN(Cc1ccccc1)C(=O)C1=Cc2sccc2N=C(N)C1 [TAZ-39]
20 | 5.55 | 5.31 | CCCN(OCC)C(=O)C1=Cc2sc(CN3CCC(C(=O)OC)CC3)cc2N=C(N)C1 [TAZ-222]
21 | 5.46 | 6.08 | CCCN(CCCNC(=O)OC1CCC1)C(=O)C1=Cc2sc(C#CC3CNC3)cc2N=C(N)C1 [TAZ-192]
22 | < 5.05 | < 5.05 | CCCN(CCC)C(=O)C1=Cc2sc(S(=O)(=O)NCCCNC(=O)OC(C)(C)C)cc2N=C(N)C1 [TAZ-55]

Row | pEC50 [1] | pEC50 [2] | SMILES
23 | 6.75 | 5.08 | CCCN(Cc1cnc(CN)cn1)C(=O)C1=Cc2sccc2N=C(N)C1 [TAZ-62]
24 | 6.23 | 5.34 | CCCN(CCC)C(=O)C1=Cc2sc(CN3CCNCC3)cc2N=C(N)C1 [TAZ-44]
25 | – | 5.74 | CCCN(CCCNC(=O)OC1CCC1)C(=O)C1=Cc2sc(CCC3CNC3)cc2N=C(N)C1 [TAZ-197]
26 | 7.12 | 5.18 | CCCN(Cc1ccc(CN)nc1C(F)(F)F)C(=O)C1=Cc2sccc2N=C(N)C1 [TAZ-70]
27 | 6.37 | 5.65 | CCCN(OCC)C(=O)C1=Cc2sc(CC3CCNC3)cc2N=C(N)C1 (centres unmarked) [TAZ-236]
28 | 5.47 | 5.45 | CCCN(CCc1ccc(OC)cc1)C(=O)C1=Cc2sccc2N=C(N)C1 [TAZ-83]
29 | – | 5.72 | CCCN(Cc1ccc(CN(C)C)cc1C(F)(F)F)C(=O)C1=Cc2sc(CCCCCNC(=O)OC(C)(C)C)cc2N=C(N)C1 [TAZ-143]
30 | – | < 5.05 | CCCN(CCC)C(=O)C1=Cc2sc(COCCCN)cc2N=C(N)C1 [TAZ-73]
31 | – | 5.33 | CCCN(C(=O)C1=Cc2sc(CCCCCNC(=O)OC(C)(C)C)cc2N=C(N)C1)C1CC1 [TAZ-123]
32 | – | 5.44 | CCCN(CCCNC(=O)OC1CCC1)C(=O)C1=Cc2sc(CN3CCN(c4ccc(C(=O)OC)cc4)CC3)cc2N=C(N)C1 [TAZ-180]
33 | – | 5.79 | CN(C)Cc1ccc(CN(CCC(F)(F)F)C(=O)C2=Cc3sc(CCCCCNC(=O)OC(C)(C)C)cc3N=C(N)C2)cc1 [TAZ-116]
34 | – | < 5.05 | CCCN(Cc1ccc(CN2CCNCC2)cc1)C(=O)C1=Cc2sccc2N=C(N)C1 [TAZ-37]
35 | – | 6.08 | CCCN(CCCNC(=O)C(C)(C)C)C(=O)C1=Cc2sc(CCCCCN)cc2N=C(N)C1 [TAZ-142]
36 | – | 5.54 | CCCN(C[C@H]1CC[C@@H](CNC(=O)OC(C)(C)C)CC1)C(=O)C1=Cc2sccc2N=C(N)C1 [TAZ-119]
37 | – | 5.50 | CCCN(CCCNC(=O)OC1CCC1)C(=O)C1=Cc2sc(CN3CCNCC3)cc2N=C(N)C1 [TAZ-169]
38 | – | 5.43 | CCCN(CCCNC(=O)OC1CCC1)C(=O)C1=Cc2sc(CC3CCNCC3)cc2N=C(N)C1 [TAZ-185, cyclobutyl N-[3-[[5-amino-2-(4-piperidylmethyl)-6H-thieno[3,2-b]azepine-7-carbonyl]-propyl-amino]propyl]carbamate]
39 | – | 5.38 | CCCN(CCCNC(=O)CC(C)(C)C)C(=O)C1=Cc2sc(CN3CCNCC3)cc2N=C(N)C1 [TAZ-139]
40 | – | 5.11 | CCCN(CC#CCNC(=O)OC(C)(C)C)C(=O)C1=Cc2sc(Br)cc2N=C(N)C1 [TAZ-10, tert-butyl N-[4-[(5-amino-2-bromo-6H-thieno[3,2-b]azepine-7-carbonyl)-propyl-amino]but-2-ynyl]carbamate]
41 | – | 5.50 | CCCN(CCCNC(=O)OC1CCC1)C(=O)C1=Cc2sc(CCC3CCN(C(=O)OC(C)(C)C)CC3)cc2N=C(N)C1 [TAZ-167]
42 | – | 5.11 | CCCN(OCC)C(=O)C1=Cc2sc(C#CC3CCN(C(=O)OC(C)(C)C)CC3)cc2N=C(N)C1 [TAZ-173]
43 | – | 5.57 | CCCN(CC1CC1)C(=O)C1=Cc2sc(CCCCCNC(=O)OC(C)(C)C)cc2N=C(N)C1 [TAZ-125]

Row | SMILES | pEC50 [1] | pEC50 [2]
44 | CCCN(OCC)C(=O)C1=Cc2sc(CN3CC4CCC(C3)N4)cc2N=C(N)C1 [TAZ-245] | 6.84 | 5.30
